tested on: NSCLC; assay: Growth inhibition of human NSCLC cells after 48 hrs; assay type: functional; conditions: not given

| SMILES | GI50 | LC50 | TGI |
| --- | --- | --- | --- |
| COc1cc2c(/C=C3/C(=O)N(C)c4ccc(O)cc43)c(Cl)n(C)c2cc1C | 0.22 µM | 42.7 µM | – |
| COc1ccc2[nH]cc(/C=C3/C(=O)Nc4ccccc43)c2c1 | 5.13 µM | – | 25.1 µM |
| COc1cc2c(/C=C3/C(=O)Nc4ccc(N(C)C)cc43)c(Cl)n(C)c2cc1C | 18.2 µM | – | – |
| COc1cc2c(/C=C3/C(=O)Nc4ccc(Br)cc43)c(Cl)[nH]c2cc1C | 3.02 µM | 53.7 µM | – |
| COc1cc2c(/C=C3/C(=O)N(C)c4ccccc43)c[nH]c2cc1C | 6.31 µM | 93.3 µM | 66.1 µM |

tested on: not listed separately; assay: Growth inhibition of human renal cancer cells after 48 hrs; assay type: functional; conditions: Cancer cell lines

| SMILES | GI50 | TGI |
| --- | --- | --- |
| COc1cc2c(/C=C3/C(=O)N(C)c4ccc(O)cc43)c(Cl)n(C)c2cc1C | 0.11 µM | – |
| COc1ccc2[nH]cc(/C=C3/C(=O)Nc4ccccc43)c2c1 | 5.75 µM | 26.3 µM |
| COc1cc2c(/C=C3/C(=O)Nc4ccc(N(C)C)cc43)c(Cl)n(C)c2cc1C | 11.2 µM | – |
| COc1cc2c(/C=C3/C(=O)Nc4ccc(Br)cc43)c(Cl)[nH]c2cc1C | 2.45 µM | – |
| COc1cc2c(/C=C3/C(=O)N(C)c4ccccc43)c[nH]c2cc1C | 4.17 µM | 60.3 µM |

same assay, conditions: Cancer cell lines, read-out: LC50 (the source's name)

| SMILES | CC50 |
| --- | --- |
| COc1cc2c(/C=C3/C(=O)N(C)c4ccc(O)cc43)c(Cl)n(C)c2cc1C | 36.3 µM |
| COc1ccc2[nH]cc(/C=C3/C(=O)Nc4ccccc43)c2c1 | 83.2 µM |
| COc1cc2c(/C=C3/C(=O)Nc4ccc(Br)cc43)c(Cl)[nH]c2cc1C | 37.1 µM |

tested on: not listed separately; assay: Growth inhibition of human melanoma cells after 48 hrs; assay type: functional; conditions: Melanoma cell

| SMILES | GI50 | TGI |
| --- | --- | --- |
| COc1cc2c(/C=C3/C(=O)N(C)c4ccc(O)cc43)c(Cl)n(C)c2cc1C | 0.11 µM | – |
| COc1ccc2[nH]cc(/C=C3/C(=O)Nc4ccccc43)c2c1 | 6.61 µM | 27.5 µM |
| COc1cc2c(/C=C3/C(=O)Nc4ccc(N(C)C)cc43)c(Cl)n(C)c2cc1C | 10.2 µM | – |
| COc1cc2c(/C=C3/C(=O)Nc4ccc(Br)cc43)c(Cl)[nH]c2cc1C | 2.14 µM | – |
| COc1cc2c(/C=C3/C(=O)N(C)c4ccccc43)c[nH]c2cc1C | 3.09 µM | 74.1 µM |

same assay, conditions: Melanoma cell, read-out: LC50 (the source's name)

| SMILES | CC50 |
| --- | --- |
| COc1cc2c(/C=C3/C(=O)N(C)c4ccc(O)cc43)c(Cl)n(C)c2cc1C | 33.1 µM |
| COc1ccc2[nH]cc(/C=C3/C(=O)Nc4ccccc43)c2c1 | 75.9 µM |
| COc1cc2c(/C=C3/C(=O)Nc4ccc(N(C)C)cc43)c(Cl)n(C)c2cc1C | 93.3 µM |
| COc1cc2c(/C=C3/C(=O)Nc4ccc(Br)cc43)c(Cl)[nH]c2cc1C | 41.7 µM |
| COc1cc2c(/C=C3/C(=O)N(C)c4ccccc43)c[nH]c2cc1C | 97.7 µM |

tested on: not listed separately; assay: Growth inhibition of human prostate cancer cells after 48 hrs; assay type: functional; conditions: Cancer cell lines

| SMILES | GI50 | TGI |
| --- | --- | --- |
| COc1cc2c(/C=C3/C(=O)N(C)c4ccc(O)cc43)c(Cl)n(C)c2cc1C | 0.1 µM | – |
| COc1ccc2[nH]cc(/C=C3/C(=O)Nc4ccccc43)c2c1 | 5.62 µM | 24 µM |
| COc1cc2c(/C=C3/C(=O)Nc4ccc(N(C)C)cc43)c(Cl)n(C)c2cc1C | 20.4 µM | – |
| COc1cc2c(/C=C3/C(=O)Nc4ccc(Br)cc43)c(Cl)[nH]c2cc1C | 2.24 µM | – |
| COc1cc2c(/C=C3/C(=O)N(C)c4ccccc43)c[nH]c2cc1C | 4.17 µM | 81.3 µM |

same assay, conditions: Cancer cell lines, read-out: LC50 (the source's name)

| SMILES | CC50 |
| --- | --- |
| COc1cc2c(/C=C3/C(=O)N(C)c4ccc(O)cc43)c(Cl)n(C)c2cc1C | 24 µM |
| COc1ccc2[nH]cc(/C=C3/C(=O)Nc4ccccc43)c2c1 | 83.2 µM |
| COc1cc2c(/C=C3/C(=O)Nc4ccc(Br)cc43)c(Cl)[nH]c2cc1C | 30.9 µM |

tested on: not listed separately; assay: Growth inhibition of human Ovarian cancer cells after 48 hrs; assay type: functional; conditions: Cancer cell lines

| SMILES | GI50 | TGI |
| --- | --- | --- |
| COc1cc2c(/C=C3/C(=O)N(C)c4ccc(O)cc43)c(Cl)n(C)c2cc1C | 0.26 µM | – |
| COc1ccc2[nH]cc(/C=C3/C(=O)Nc4ccccc43)c2c1 | 6.31 µM | 30.2 µM |
| COc1cc2c(/C=C3/C(=O)Nc4ccc(N(C)C)cc43)c(Cl)n(C)c2cc1C | 10.5 µM | – |
| COc1cc2c(/C=C3/C(=O)Nc4ccc(Br)cc43)c(Cl)[nH]c2cc1C | 2 µM | – |
| COc1cc2c(/C=C3/C(=O)N(C)c4ccccc43)c[nH]c2cc1C | 7.76 µM | 60.3 µM |

same assay, conditions: Cancer cell lines, read-out: LC50 (the source's name)

| SMILES | CC50 |
| --- | --- |
| COc1cc2c(/C=C3/C(=O)N(C)c4ccc(O)cc43)c(Cl)n(C)c2cc1C | 47.9 µM |
| COc1ccc2[nH]cc(/C=C3/C(=O)Nc4ccccc43)c2c1 | 81.3 µM |
| COc1cc2c(/C=C3/C(=O)Nc4ccc(N(C)C)cc43)c(Cl)n(C)c2cc1C | 91.2 µM |
| COc1cc2c(/C=C3/C(=O)Nc4ccc(Br)cc43)c(Cl)[nH]c2cc1C | 38.9 µM |

tested on: not listed separately; assay: Growth inhibition of human CNS cancer cells after 48 hrs; assay type: functional; conditions: Cancer cell lines

| SMILES | GI50 | TGI |
| --- | --- | --- |
| COc1cc2c(/C=C3/C(=O)N(C)c4ccc(O)cc43)c(Cl)n(C)c2cc1C | 0.04 µM | – |
| COc1ccc2[nH]cc(/C=C3/C(=O)Nc4ccccc43)c2c1 | 6.17 µM | 28.8 µM |
| COc1cc2c(/C=C3/C(=O)Nc4ccc(N(C)C)cc43)c(Cl)n(C)c2cc1C | 10.7 µM | – |
| COc1cc2c(/C=C3/C(=O)Nc4ccc(Br)cc43)c(Cl)[nH]c2cc1C | 1.58 µM | – |
| COc1cc2c(/C=C3/C(=O)N(C)c4ccccc43)c[nH]c2cc1C | 1.07 µM | 42.7 µM |

same assay, conditions: Cancer cell lines, read-out: LC50 (the source's name)

| SMILES | CC50 |
| --- | --- |
| COc1cc2c(/C=C3/C(=O)N(C)c4ccc(O)cc43)c(Cl)n(C)c2cc1C | 29.5 µM |
| COc1ccc2[nH]cc(/C=C3/C(=O)Nc4ccccc43)c2c1 | 75.9 µM |
| COc1cc2c(/C=C3/C(=O)Nc4ccc(Br)cc43)c(Cl)[nH]c2cc1C | 35.5 µM |
| COc1cc2c(/C=C3/C(=O)N(C)c4ccccc43)c[nH]c2cc1C | 95.5 µM |

tested on: not listed separately; assay: Growth inhibition of human colon cancer cells after 48 hrs; assay type: functional; conditions: Cancer cell lines

| SMILES | GI50 | TGI |
| --- | --- | --- |
| COc1cc2c(/C=C3/C(=O)N(C)c4ccc(O)cc43)c(Cl)n(C)c2cc1C | 0.07 µM | – |
| COc1ccc2[nH]cc(/C=C3/C(=O)Nc4ccccc43)c2c1 | 2.24 µM | 15.5 µM |
| COc1cc2c(/C=C3/C(=O)Nc4ccc(N(C)C)cc43)c(Cl)n(C)c2cc1C | 12.3 µM | – |
| COc1cc2c(/C=C3/C(=O)Nc4ccc(Br)cc43)c(Cl)[nH]c2cc1C | 1.95 µM | – |
| COc1cc2c(/C=C3/C(=O)N(C)c4ccccc43)c[nH]c2cc1C | 0.76 µM | 60.3 µM |

same assay, conditions: Cancer cell lines, read-out: LC50 (the source's name)

| SMILES | CC50 |
| --- | --- |
| COc1cc2c(/C=C3/C(=O)N(C)c4ccc(O)cc43)c(Cl)n(C)c2cc1C | 26.9 µM |
| COc1ccc2[nH]cc(/C=C3/C(=O)Nc4ccccc43)c2c1 | 70.8 µM |
| COc1cc2c(/C=C3/C(=O)Nc4ccc(Br)cc43)c(Cl)[nH]c2cc1C | 23.4 µM |
| COc1cc2c(/C=C3/C(=O)N(C)c4ccccc43)c[nH]c2cc1C | 97.7 µM |

tested on: not listed separately; assay: Growth inhibition of human leukemia cells after 48 hrs; assay type: functional; conditions: Leukemia cell

| SMILES | GI50 | TGI |
| --- | --- | --- |
| COc1cc2c(/C=C3/C(=O)N(C)c4ccc(O)cc43)c(Cl)n(C)c2cc1C | 0.05 µM | – |
| COc1ccc2[nH]cc(/C=C3/C(=O)Nc4ccccc43)c2c1 | 2.34 µM | 7.76 µM |
| COc1cc2c(/C=C3/C(=O)Nc4ccc(N(C)C)cc43)c(Cl)n(C)c2cc1C | 10 µM | – |
| COc1cc2c(/C=C3/C(=O)Nc4ccc(Br)cc43)c(Cl)[nH]c2cc1C | 1.62 µM | – |
| COc1cc2c(/C=C3/C(=O)N(C)c4ccccc43)c[nH]c2cc1C | 2 µM | 35.5 µM |

same assay, conditions: Leukemia cell, read-out: LC50 (the source's name)

| SMILES | CC50 |
| --- | --- |
| COc1cc2c(/C=C3/C(=O)N(C)c4ccc(O)cc43)c(Cl)n(C)c2cc1C | 19.9 µM |
| COc1ccc2[nH]cc(/C=C3/C(=O)Nc4ccccc43)c2c1 | 43.6 µM |
| COc1cc2c(/C=C3/C(=O)Nc4ccc(N(C)C)cc43)c(Cl)n(C)c2cc1C | 87.1 µM |
| COc1cc2c(/C=C3/C(=O)Nc4ccc(Br)cc43)c(Cl)[nH]c2cc1C | 37.1 µM |
| COc1cc2c(/C=C3/C(=O)N(C)c4ccccc43)c[nH]c2cc1C | 93.3 µM |

tested on: not listed separately; assay: Growth inhibition of human breast cancer cells after 48 hrs; assay type: functional; conditions: Cancer cell lines

| SMILES | GI50 | TGI |
| --- | --- | --- |
| COc1cc2c(/C=C3/C(=O)N(C)c4ccc(O)cc43)c(Cl)n(C)c2cc1C | 0.06 µM | – |
| COc1ccc2[nH]cc(/C=C3/C(=O)Nc4ccccc43)c2c1 | 3.47 µM | 18.2 µM |
| COc1cc2c(/C=C3/C(=O)Nc4ccc(N(C)C)cc43)c(Cl)n(C)c2cc1C | 6.92 µM | – |
| COc1cc2c(/C=C3/C(=O)Nc4ccc(Br)cc43)c(Cl)[nH]c2cc1C | 2.14 µM | – |
| COc1cc2c(/C=C3/C(=O)N(C)c4ccccc43)c[nH]c2cc1C | 1.78 µM | 55 µM |

same assay, conditions: Cancer cell lines, read-out: LC50 (the source's name)

| SMILES | CC50 |
| --- | --- |
| COc1cc2c(/C=C3/C(=O)N(C)c4ccc(O)cc43)c(Cl)n(C)c2cc1C | 40.7 µM |
| COc1ccc2[nH]cc(/C=C3/C(=O)Nc4ccccc43)c2c1 | 91.2 µM |
| COc1cc2c(/C=C3/C(=O)Nc4ccc(Br)cc43)c(Cl)[nH]c2cc1C | 50.1 µM |
